Laboratory results published in PubChem BioAssay AID1259407 (Chemical Carcinogenesis Research Information System (CCRIS), 2018).
Active and inactive are the calls of the source. The rule behind the calls is not given here.

System: CCRIS mutagenicity, Ames/micronucleus/aberration tests
Assay: CCRIS mutagenicity studies
[1] = Test System: AMES SALMONELLA TYPHIMURIUM, Strain/Indicator: TA100, Metabolic Activation: RAT, LIVER, S-9, AROCLOR 1254, Method: STANDARD PLATE
[2] = Test System: AMES SALMONELLA TYPHIMURIUM, Strain/Indicator: TA1535, Metabolic Activation: RAT, LIVER, S-9, AROCLOR 1254, Method: STANDARD PLATE
[3] = Test System: E. COLI, Strain/Indicator: WP2 UVRA, Metabolic Activation: NONE, Method: STANDARD PLATE
[4] = Test System: AMES SALMONELLA TYPHIMURIUM, Strain/Indicator: TA100, Metabolic Activation: NONE, Method: PREINCUBATION

In the case of `CC(=O)N(CC(O)CN(C(C)=O)c1c(I)c(C(=O)NCC(O)CO)c(I)c(C(=O)NCC(O)CO)c1I)c1c(I)c(C(=O)NCC(O)CO)c(I)c(C(=O)NCC(O)CO)c1I` (centres undefined), the mutagenic call (Test System: AMES SALMONELLA TYPHIMURIUM, Strain/Indicator: TA98, Metabolic Activation: NONE, Method: STANDARD PLATE) is reported as “inactive; negative”, the mutagenic call (Test System: AMES SALMONELLA TYPHIMURIUM, Strain/Indicator: TA98, Metabolic Activation: RAT, LIVER, S-9, AROCLOR 1254, Method: STANDARD PLATE) is reported as “inactive; negative” and the mutagenic call (Test System: AMES SALMONELLA TYPHIMURIUM, Strain/Indicator: TA100, Metabolic Activation: NONE, Method: STANDARD PLATE) is reported as “inactive; negative”. The mutagenic call [1] was “inactive; negative”, the mutagenic call (Test System: AMES SALMONELLA TYPHIMURIUM, Strain/Indicator: TA1535, Metabolic Activation: NONE, Method: STANDARD PLATE) was “inactive; negative” and the mutagenic call [2] was “inactive; negative”. For the same molecule, the mutagenic call (Test System: AMES SALMONELLA TYPHIMURIUM, Strain/Indicator: TA1537, Metabolic Activation: NONE, Method: STANDARD PLATE) was “inactive; negative”, the mutagenic call (Test System: AMES SALMONELLA TYPHIMURIUM, Strain/Indicator: TA1537, Metabolic Activation: RAT, LIVER, S-9, AROCLOR 1254, Method: STANDARD PLATE) was “inactive; negative” and the mutagenic call (Test System: AMES SALMONELLA TYPHIMURIUM, Strain/Indicator: TA1538, Metabolic Activation: NONE, Method: STANDARD PLATE) was “inactive; negative”. The mutagenic call (Test System: AMES SALMONELLA TYPHIMURIUM, Strain/Indicator: TA1538, Metabolic Activation: RAT, LIVER, S-9, AROCLOR 1254, Method: STANDARD PLATE) was “inactive; negative”, the mutagenic call [3] was “inactive; negative” and the mutagenic call (Test System: E. COLI, Strain/Indicator: WP2 UVRA, Metabolic Activation: RAT, LIVER, S-9, AROCLOR 1254, Method: STANDARD PLATE) was “inactive; negative”.
`O=P(OCCCl)(OCCCl)OCCCl` was tested, and the mutagenic call (End Point: IN VITRO CHROMOSOMAL ABERRATIONS, Test System: CHINESE HAMSTER OVARY CELLS, Metabolic Activation: NONE) was “inactive; negative”, the mutagenic call (End Point: IN VITRO CHROMOSOMAL ABERRATIONS, Test System: CHINESE HAMSTER OVARY CELLS, Metabolic Activation: RAT, LIVER, S-9, AROCLOR 1254) was “inactive; negative” and the mutagenic call (Test System: AMES SALMONELLA TYPHIMURIUM, Strain/Indicator: TA98, Metabolic Activation: HAMSTER, LIVER, S-9, AROCLOR 1254 (10%), Method: PREINCUBATION) was “inactive; negative”. For the same molecule, the mutagenic call (Test System: AMES SALMONELLA TYPHIMURIUM, Strain/Indicator: TA98, Metabolic Activation: NONE, Method: PREINCUBATION) was “inactive; negative”, the mutagenic call (Test System: AMES SALMONELLA TYPHIMURIUM, Strain/Indicator: TA98, Metabolic Activation: RAT, LIVER, S-9, AROCLOR 1254 (10%), Method: PREINCUBATION) was “inactive; negative” and the mutagenic call (Test System: AMES SALMONELLA TYPHIMURIUM, Strain/Indicator: TA100, Metabolic Activation: HAMSTER, LIVER, S-9, AROCLOR 1254 (10%), Method: PREINCUBATION) was “inactive; negative”. For the same molecule, the mutagenic call [4] was “inactive; negative”, the mutagenic call (Test System: AMES SALMONELLA TYPHIMURIUM, Strain/Indicator: TA100, Metabolic Activation: RAT, LIVER, S-9, AROCLOR 1254 (10%), Method: PREINCUBATION) was “inactive; negative” and the mutagenic call (Test System: AMES SALMONELLA TYPHIMURIUM, Strain/Indicator: TA100, Metabolic Activation: RAT, LIVER, S-9, PCB, Method: STANDARD PLATE) was “active; positive”. For the same molecule, the mutagenic call (Test System: AMES SALMONELLA TYPHIMURIUM, Strain/Indicator: TA1535, Metabolic Activation: HAMSTER, LIVER, S-9, AROCLOR 1254 (10%), Method: PREINCUBATION) was “inactive; negative”, the mutagenic call (Test System: AMES SALMONELLA TYPHIMURIUM, Strain/Indicator: TA1535, Metabolic Activation: NONE, Method: PREINCUBATION) was “inactive; negative” and the mutagenic call (Test System: AMES SALMONELLA TYPHIMURIUM, Strain/Indicator: TA1535, Metabolic Activation: RAT, LIVER, S-9, AROCLOR 1254 (10%), Method: PREINCUBATION) was “inactive; negative”. For the same molecule, the mutagenic call (Test System: AMES SALMONELLA TYPHIMURIUM, Strain/Indicator: TA1535, Metabolic Activation: RAT, LIVER, S-9, PCB, Method: STANDARD PLATE) was “active; positive”, the mutagenic call (Test System: AMES SALMONELLA TYPHIMURIUM, Strain/Indicator: TA1537, Metabolic Activation: HAMSTER, LIVER, S-9, AROCLOR 1254 (10%), Method: PREINCUBATION) was “inactive; negative” and the mutagenic call (Test System: AMES SALMONELLA TYPHIMURIUM, Strain/Indicator: TA1537, Metabolic Activation: NONE, Method: PREINCUBATION) was “inactive; negative”. The mutagenic call (Test System: AMES SALMONELLA TYPHIMURIUM, Strain/Indicator: TA1537, Metabolic Activation: RAT, LIVER, S-9, AROCLOR 1254 (10%), Method: PREINCUBATION) was “inactive; negative”.
In the case of `O=P1(NCCCl)OCCCN1CCCl` (centres undefined), the mutagenic call (Test System: AMES SALMONELLA TYPHIMURIUM, Strain/Indicator: TA100, Metabolic Activation: NADPH, Method: PREINCUBATION) is reported as “active; positive”, the mutagenic call [4] is reported as “active; positive” and the mutagenic call (Test System: AMES SALMONELLA TYPHIMURIUM, Strain/Indicator: TA100, Metabolic Activation: RAT, LIVER, HEPATOCYTES, PHENOBARBITAL, Method: PREINCUBATION) is reported as “inactive; negative”. For the same molecule, the mutagenic call [1] was “active; positive”, the mutagenic call (Test System: AMES SALMONELLA TYPHIMURIUM, Strain/Indicator: TA100, Metabolic Activation: RAT, LIVER, S-9, PHENOBARBITAL, NADPH, Method: PREINCUBATION) was “active; positive” and the mutagenic call (Test System: AMES SALMONELLA TYPHIMURIUM, Strain/Indicator: TA100, Metabolic Activation: RAT, LIVER, S-9, PHENOBARBITAL, Method: PREINCUBATION) was “active; positive”. The mutagenic call (Test System: AMES SALMONELLA TYPHIMURIUM, Strain/Indicator: TA1535, Metabolic Activation: RAT, LIVER, HEPATOCYTES, PHENOBARBITAL, Method: PREINCUBATION) was “active; positive” and the mutagenic call [2] was “active; positive”.
For `Fc1cnc2c(ccc3ccccc32)c1`, the mutagenic call (Test System: AMES SALMONELLA TYPHIMURIUM, Strain/Indicator: TA100, Metabolic Activation: RAT, LIVER, S-9, PHENOBARBITAL AND 5,6-BENZOFLAVONE, Method: PREINCUBATION) was “inactive; negative”.
`O=c1nc(NO)ccn1[C@@H]1O[C@H](CO)[C@@H](O)[C@H]1O` was tested, and the mutagenic call (Test System: E. COLI, Strain/Indicator: WP2, Metabolic Activation: NONE, Method: STANDARD PLATE) was “active; positive” and the mutagenic call [3] was “active; positive”.
With `Nc1nc(-c2ccccc2)c(Br)c(=O)[nH]1` the mutagenic call (Test System: CHINESE HAMSTER OVARY, Strain/Indicator: CHO (HGPRT), Metabolic Activation: RAT, LIVER, S-9, AROCLOR 1254) was “active; positive”, the mutagenic call (Test System: MOUSE LYMPHOMA, Strain/Indicator: L5178Y (TK+/TK-), Metabolic Activation: NONE, Method: SUSPENSION/PLATE) was “inactive; negative” and the mutagenic call (Test System: MOUSE LYMPHOMA, Strain/Indicator: L5178Y (TK+/TK-), Metabolic Activation: RAT, LIVER, S-9, AROCLOR 1254, Method: SUSPENSION/PLATE) was “inactive; negative”.
With `O=C(O)c1cn(C2CC2)c2c(Cl)c(N3C[C@@H]4CCCN[C@@H]4C3)c(F)cc2c1=O` the mutagenic call (Test System: CHINESE HAMSTER V-79, Strain/Indicator: V-79 (HGPRT)/6-THIOGUANINE, Metabolic Activation: NONE, Method: STANDARD PLATE) was “active; positive” and the mutagenic call (Test System: CHINESE HAMSTER, Strain/Indicator: V-79(HPRT)/6-THIOGUANINE, Metabolic Activation: NONE, Method: SUSPENSION/PLATE) was “active; positive”.
